One may read the IC50 as the midpoint of a concentration-inhibition curve. A high value points to weaker potency.

We go through 34 molecules from US20120196853A1, “Novel Quinoline-Hepcidine Antagonists” (VIFOR (INTERNATIONAL) AG, priority 2009, published 2012).

Bounds are passed on as bounds.

The target of one assay is T1, human ferroportin (Fpn-HaloTag fusion protein) (Homo sapiens, UniProt Q9NP59).
T1 construct: expressed in transfected cells
T1 sequence (Q9NP59 1-571): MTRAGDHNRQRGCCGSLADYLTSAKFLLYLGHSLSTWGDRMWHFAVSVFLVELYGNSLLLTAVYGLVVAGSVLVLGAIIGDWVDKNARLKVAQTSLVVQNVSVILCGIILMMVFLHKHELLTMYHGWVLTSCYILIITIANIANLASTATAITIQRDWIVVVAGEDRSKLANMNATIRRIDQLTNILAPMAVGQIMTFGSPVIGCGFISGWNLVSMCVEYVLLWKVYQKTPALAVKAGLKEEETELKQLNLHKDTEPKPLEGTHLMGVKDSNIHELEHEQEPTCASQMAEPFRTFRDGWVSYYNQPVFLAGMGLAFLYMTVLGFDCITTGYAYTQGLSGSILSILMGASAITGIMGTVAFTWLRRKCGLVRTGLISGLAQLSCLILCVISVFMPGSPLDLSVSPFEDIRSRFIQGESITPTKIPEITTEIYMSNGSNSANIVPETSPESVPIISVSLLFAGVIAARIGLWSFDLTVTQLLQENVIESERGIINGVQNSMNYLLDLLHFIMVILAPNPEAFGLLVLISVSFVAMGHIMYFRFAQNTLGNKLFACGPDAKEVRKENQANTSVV
Briefly: ferroportin internalization assay (inhibition of hepcidin-induced internalization of Fpn, MDCK-FPN-HaloTag cells). Conditions: 100 nM hepcidin, overnight, dilution series 0.04 to 40 μM. In kind it is cell-based. The protocol: The hepcidin-antagonistic action of the quinoline compounds of the present invention was determined by means of the “ferroportin internalization assay” described in the following.
Organic compounds of low molecular weight which counteract the biological actions of hepcidin on its receptor, the iron exporter ferroportin (Fpn), were identified on the basis of their ability to inhibit hepcidin-induced internalization of Fpn in living cells. For this purpose, a stable cell line (Madin-Darby canine kidney, MDCK) was produced which constitutively expresses human ferroportin fused recombinantly at its C terminus with a fluorescent reporter protein (HaloTag®, Promega Corp.). The internalization of Fpn was monitored by labelling these cells with fluorescent ligands (HaloTag®-TMR, tetramethylrhodamine) which join covalently on to the HaloTag reporter gene fused with the Fpn. […] Optimized image analysis algorithms were used to ascertain the cell surface and to quantify the corresponding membrane fluorescence associated with the Fpn-HaloTag fusion protein. This assay allows a quantitative image-based analysis in order to quickly evaluate compounds which can block hepcidin-induced internalization of Fpn. This assay is a direct in vitro pendant of the in vivo action mechanism proposed for medicament candidates and is therefore suitable as an initial assay with a high throughput for identifying compounds which counteract the action of hepcidin on its receptor ferroportin.
• 7,500 cells per well (MDCK-FPN-HaloTag) were transinoculated in 50 μl DMEM medium (Dulbeccos modified Eagle medium with 10% foetal bovine serum (FBS), which contained 1% penicillin, 1% streptomycin and 450 μg/ml of G-418) in microtitre plates with 384 wells, (384 Cell carrier plates, Perkin Elmer, cat. no. 6007430), followed by incubation overnight at 37° C./5% CO2. • The volume of the medium was reduced to 10 μl, and 10 μl of 5 μM HaloTag-TMR ligands (Promega, cat. no. G 8251) were added in DMEM medium in order to stain the Fpn-HaloTag fusion protein. • 15 min incubation at 37° C./5% CO2 • The HaloTag-TMR ligand was removed and the cells were washed with fresh DMEM medium and the volume was reduced to 20 μl of DMEM medium. • 3 μl per well of a solution of the test compound (dissolved DMSO) were added ([…]). • 7 μl of […] hepcidin (Peptides International, cat. no. PLP-4392-s, 100 μM stock solution diluted in water in DMEM medium) were added per well up to a final hepcidin concentration of 100 nM. • The cells were incubated overnight at 37° C./5% CO2. • The cells were fixed by adding paraformaldehyde (PFA, Electron Microscopy Sciences, cat. no. 15710-S) directly to the cells up to a final concentration of 4%, followed by incubation at room temperature for 15-20 minutes. • The PFA solution was removed and the cells were washed with PBS (phosphate-buffered saline solution), in each case 30 μl remaining in the plate. • 20 μl of Draq5 (Biostatus, cat. no. DR 51000) were added up to a final concentration of 2.5 μM in order to stain the cell nuclei, and the plates were sealed with a foil plate seal. • The plates were analysed with the Opera Plate Imager (Opera Confocal Plate Imager, Perkin Elmer) with 7 images per well; 440 ms exposure time per image, […] focal point height.
For `Oc1c(C(c2ccccn2)N2CCOCC2)ccc2cccnc12` (stereo not shown) [Example 1, 7-(Morpholin-4-yl-pyridin-2-yl-methyl)-quinolin-8-ol], the 50% inhibitory concentration (IC50) is less than 50 µM.
The same measure, in the same setting: as for `Oc1c(C(c2ccc(Cl)cc2)N2CCOCC2)cc(Cl)c2cccnc12` (stereo not shown) [Example 2, 5-Chloro-7-[(4-chloro-phenyl)-morpholin-4-yl-methyl]-quinolin-8-ol], the figure is less than 50 µM; as for `O=C(Oc1c(CN2CCOCC2)cc(Cl)c2cccnc12)c1ccco1` [Example 3, Furan-2-carboxylic acid 5-chloro-7-morpholin-4-ylmethyl-quinolin-8-yl ester], less than 50 µM; as for `COc1cc(C(=O)Oc2c(CN3CCOCC3)cc(Cl)c3cccnc23)cc(OC)c1OC` [Example 4, 3,4,5-Trimethoxy-benzoic acid 5-chloro-7-morpholin-4-ylmethyl-quinolin-8-yl ester], less than 50 µM.
Consider `O=C(Oc1c(CN2CCOCC2)cc(Cl)c2cccnc12)c1ccccc1` [Example 5, Benzoic acid 5-chloro-7-morpholin-4-ylmethyl-quinolin-8-yl ester], for which the IC50 is less than 50 µM.
Same read-out and setting: to `Oc1c(C(Nc2ccccn2)c2cccnc2)cc(Cl)c2cccnc12` (stereo not shown) [Example 6, 5-Chloro-7-[pyridin-3-yl-(pyridin-2-ylamino)-methyl]-quinolin-8-ol] belongs less than 50 µM; to `Oc1c(C(c2ccccn2)N2CCC(Cc3ccccc3)CC2)ccc2cccnc12` (stereo not shown) [Example 7, 7-[(4-Benzyl-piperidin-1-yl)-pyridin-2-yl-methyl]-quinolin-8-ol], less than 50 µM; to `OCCN1CCN(C(c2ccccn2)c2ccc3cccnc3c2O)CC1` (stereo not shown) [Example 8], less than 50 µM.
Regarding `Cc1ccc(C(c2ccc3cccnc3c2O)N2CCOCC2)cc1` (stereo not shown) [Example 9, 7-(Morpholin-4-yl-p-tolyl-methyl)-quinolin-8-ol], the IC50 was less than 50 µM.
The same measure, in the same setting: as for `N#Cc1ccc(C(c2ccc3cccnc3c2O)N2CCOCC2)cc1` (stereo not shown) [Example 10, 4-[(8-Hydroxy-quinolin-7-yl)-morpholin-4-yl-methyl]-benzonitrile], the figure is less than 50 µM; as for `COc1ccc(C(c2ccc3cccnc3c2O)N2CCOCC2)cn1` (stereo not shown) [Example 11, 7-[(6-Methoxy-pyridin-3-yl)-morpholin-4-yl-methyl]-quinolin-8-ol], less than 50 µM; as for `Cc1ccccc1C(c1ccc2cccnc2c1O)N1CCOCC1` (stereo not shown) [Example 12, 7-(Morpholin-4-yl-o-tolyl-methyl)-quinolin-8-ol], less than 50 µM.
Same read-out and setting: as for `Oc1c(C(c2ccccc2Cl)N2CCOCC2)ccc2cccnc12` (stereo not shown) [Example 13, 7-[(2-Chloro-phenyl)-morpholin-4-yl-methyl]-quinolin-8-ol], the figure is less than 50 µM.
Still for that read-out and setting: to `COc1ccccc1C(c1ccc2cccnc2c1O)N1CCOCC1` (stereo not shown) [Example 14, 7-[(2-Methoxy-phenyl)-morpholin-4-yl-methyl]-quinolin-8-ol] belongs less than 50 µM; to `Oc1c(C(c2cnccn2)N2CCOCC2)ccc2cccnc12` (stereo not shown) [Example 15, 7-(Morpholin-4-yl-pyrazin-2-yl-methyl)-quinolin-8-ol], less than 50 µM.
`Oc1c(C(c2nccn2Cc2ccccc2)N2CCOCC2)ccc2cccnc12` (stereo not shown) [Example 16]: the half-inhibitory concentration (IC50) was less than 50 µM.
The same measure, in the same setting: as for `Oc1c(C(NCc2ccccc2)c2ccncc2)ccc2cccnc12` (stereo not shown) [Example 17, 7-(Benzylamino-pyridin-4-yl-methyl)-quinolin-8-ol], the figure is less than 50 µM; as for `CC1CN(C(c2ccncc2)c2ccc3cccnc3c2O)CC(C)O1` (stereo not shown) [Example 18, 7-[(2,6-Dimethyl-morpholin-4-yl)-pyridin-4-yl-methyl]-quinolin-8-ol], less than 50 µM; as for `CN(Cc1ccccc1)C(c1ccncc1)c1ccc2cccnc2c1O` (stereo not shown) [Example 19, 7-[(Benzyl-methyl-amino)-pyridin-4-yl-methyl]-quinolin-8-ol], less than 50 µM.
As to `CC1CN(C(c2ccc(F)cc2)c2ccc3cccnc3c2O)CC(C)O1` (stereo not shown) [Example 20, 7-[(2,6-Dimethyl-morpholin-4-yl)-(4-fluoro-phenyl)-methyl]-quinolin-8-ol], the half-inhibitory concentration (IC50) is less than 50 µM.
The same measure, in the same setting: to `Oc1c(C(c2cccs2)N2CCOCC2)ccc2cccnc12` (stereo not shown) [Example 21, 7-(Morpholin-4-yl-thiophen-2-yl-methyl)-quinolin-8-ol] belongs less than 50 µM; to `Oc1c(CN2CCOCC2)ccc2cccnc12` [Example 22, 7-Morpholin-4-yl-methyl-quinolin-8-ol], less than 50 µM; to `COc1cc(COc2c(CN3CCOCC3)ccc3cccnc23)cc(OC)c1OC` [Example 23, 7-Morpholin-4-ylmethyl-8-(3,4,5-trimethoxybenzyloxy)-quinoline], greater than 100 µM.
The same measure, in the same setting: to `NC(=O)c1ccc(C(c2ccc3cccnc3c2O)N2CCOCC2)cc1` (stereo not shown) [Example 24, 4-[(8-Hydroxy-quinolin-7-yl)-morpholin-4-yl-methyl]-benzamide] belongs less than 50 µM.
`Oc1c(C(c2ccccn2)N2CCOCC2)cc(Cl)c2cccnc12` (stereo not shown) [Example 25, 5-Chloro-7-(morpholin-4-yl-pyridin-2-yl-methyl)-quinolin-8-ol] came in with an IC50 of less than 50 µM.
Same read-out and setting: as for `CCOC(=O)N1CCN(C(c2ccccn2)c2ccc3cccnc3c2O)CC1` (stereo not shown) [Example 26, 4-[(8-Hydroxy-quinolin-7-yl)-pyridin-2-yl-methyl]-piperazine-1-carboxylic acid ethyl ester], the figure is less than 50 µM.
Same read-out and setting: as for `Oc1c(C(c2ccccn2)N2CCCCC2)ccc2cccnc12` (stereo not shown) [Example 27, 7-(Piperidin-1-yl-pyridin-2-yl-methyl)-quinolin-8-ol], the figure is less than 50 µM; as for `Oc1c(C(c2ccc(F)cc2)N2CCOCC2)ccc2cccnc12` (stereo not shown) [Example 28], less than 50 µM.
`Oc1c(C(c2cccnc2)N2CCOCC2)ccc2cccnc12` (stereo not shown) [Example 29, 7-(Morpholin-4-yl-pyridin-3-yl-methyl)-quinolin-8-ol] showed a half-maximal inhibitory concentration (IC50) of less than 50 µM.
In turn, `Oc1c(C(c2ccncc2)N2CCOCC2)ccc2cccnc12` (stereo not shown) [Example 30, 7-(Morpholin-4-yl-pyridin-4-yl-methyl)-quinolin-8-ol] yielded a half-maximal inhibitory concentration (IC50) of less than 50 µM.
Molecule `Oc1c(CN2CCOCC2)cc(Cl)c2cccnc12` [Example 31, 5-Chloro-7-morpholin-4-ylmethyl-quinolin-8-ol] registered a half-inhibitory concentration (IC50) of less than 50 µM.
`Oc1c(C(c2ccccn2)N2CCCCC2)cc(Cl)c2cccnc12` (stereo not shown) [Example 32, 5-Chloro-7-(piperidin-1-yl-pyridin-2-yl-methyl)-quinolin-8-ol] displayed a half-inhibitory concentration (IC50) of less than 50 µM.
In turn, `CC1CN(C(c2ccccn2)c2cc(Cl)c3cccnc3c2O)CC(C)O1` (stereo not shown) [Example 33] registered an IC50 of less than 50 µM.
Same read-out and setting: as for `Oc1c(C(c2ccccn2)N2CCN(Cc3ccccc3)CC2)ccc2cccnc12` (stereo not shown) [Example 34, 7-[(4-Benzyl-piperazin-1-yl)-pyridin-2-yl-methyl]quinolin-8-ol], the figure is less than 50 µM.

The assay is the same for the next values; noted with them: 10 μM substance conc., hepcidin-induced Fpn internalization.
In the case of `Oc1c(C(c2ccccn2)N2CCOCC2)ccc2cccnc12` (stereo not shown) [Example 1, 7-(Morpholin-4-yl-pyridin-2-yl-methyl)-quinolin-8-ol], the “I [%] (median inhibition [%] at 10 μM substance conc.)” value was greater than 50%.
On the same count and under the same terms, as for `Oc1c(C(c2ccc(Cl)cc2)N2CCOCC2)cc(Cl)c2cccnc12` (stereo not shown) [Example 2, 5-Chloro-7-[(4-chloro-phenyl)-morpholin-4-yl-methyl]-quinolin-8-ol], the figure is less than 50%; as for `O=C(Oc1c(CN2CCOCC2)cc(Cl)c2cccnc12)c1ccco1` [Example 3, Furan-2-carboxylic acid 5-chloro-7-morpholin-4-ylmethyl-quinolin-8-yl ester], less than 50%; as for `COc1cc(C(=O)Oc2c(CN3CCOCC3)cc(Cl)c3cccnc23)cc(OC)c1OC` [Example 4, 3,4,5-Trimethoxy-benzoic acid 5-chloro-7-morpholin-4-ylmethyl-quinolin-8-yl ester], less than 50%.
Same read-out and setting: to `O=C(Oc1c(CN2CCOCC2)cc(Cl)c2cccnc12)c1ccccc1` [Example 5, Benzoic acid 5-chloro-7-morpholin-4-ylmethyl-quinolin-8-yl ester] belongs less than 50%.
Same read-out and setting: to `Oc1c(C(Nc2ccccn2)c2cccnc2)cc(Cl)c2cccnc12` (stereo not shown) [Example 6, 5-Chloro-7-[pyridin-3-yl-(pyridin-2-ylamino)-methyl]-quinolin-8-ol] belongs less than 50%.
